Measurements as given in patent US8183271B2, “Tetrazole derivatives and their use for the treatment of cardiovascular diseases” (Bayer Intellectual Property GmbH, priority 2005, dated 2012).

Experiments:
[1] = biological target: T1, Heme-containing sGC (recombinant soluble guanylate cyclase) (Rattus norvegicus, UniProt P20595); assay: Stimulation of recombinant soluble guanylate cyclase (sGC) in vitro, heme-containing enzyme; format: biochemical
T1 construct: made in house
T1 sequence (P20595 1-619): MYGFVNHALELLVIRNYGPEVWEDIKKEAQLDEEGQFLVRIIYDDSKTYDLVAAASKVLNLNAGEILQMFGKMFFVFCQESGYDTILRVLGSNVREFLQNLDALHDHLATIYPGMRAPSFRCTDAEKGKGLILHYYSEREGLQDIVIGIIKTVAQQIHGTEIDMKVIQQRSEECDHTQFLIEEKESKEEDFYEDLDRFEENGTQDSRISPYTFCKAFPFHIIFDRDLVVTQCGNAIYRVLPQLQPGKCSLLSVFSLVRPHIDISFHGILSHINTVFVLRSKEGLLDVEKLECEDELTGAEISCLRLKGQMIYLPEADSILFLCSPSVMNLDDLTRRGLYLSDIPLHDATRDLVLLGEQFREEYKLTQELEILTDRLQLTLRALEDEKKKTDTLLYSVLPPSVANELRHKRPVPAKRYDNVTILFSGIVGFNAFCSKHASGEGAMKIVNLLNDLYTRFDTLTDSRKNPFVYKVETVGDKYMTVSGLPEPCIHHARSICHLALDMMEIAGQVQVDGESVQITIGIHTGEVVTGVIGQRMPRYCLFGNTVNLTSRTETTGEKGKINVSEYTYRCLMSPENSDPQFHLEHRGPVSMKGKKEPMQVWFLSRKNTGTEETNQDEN
T1 sequence (P19686 1-690 partner): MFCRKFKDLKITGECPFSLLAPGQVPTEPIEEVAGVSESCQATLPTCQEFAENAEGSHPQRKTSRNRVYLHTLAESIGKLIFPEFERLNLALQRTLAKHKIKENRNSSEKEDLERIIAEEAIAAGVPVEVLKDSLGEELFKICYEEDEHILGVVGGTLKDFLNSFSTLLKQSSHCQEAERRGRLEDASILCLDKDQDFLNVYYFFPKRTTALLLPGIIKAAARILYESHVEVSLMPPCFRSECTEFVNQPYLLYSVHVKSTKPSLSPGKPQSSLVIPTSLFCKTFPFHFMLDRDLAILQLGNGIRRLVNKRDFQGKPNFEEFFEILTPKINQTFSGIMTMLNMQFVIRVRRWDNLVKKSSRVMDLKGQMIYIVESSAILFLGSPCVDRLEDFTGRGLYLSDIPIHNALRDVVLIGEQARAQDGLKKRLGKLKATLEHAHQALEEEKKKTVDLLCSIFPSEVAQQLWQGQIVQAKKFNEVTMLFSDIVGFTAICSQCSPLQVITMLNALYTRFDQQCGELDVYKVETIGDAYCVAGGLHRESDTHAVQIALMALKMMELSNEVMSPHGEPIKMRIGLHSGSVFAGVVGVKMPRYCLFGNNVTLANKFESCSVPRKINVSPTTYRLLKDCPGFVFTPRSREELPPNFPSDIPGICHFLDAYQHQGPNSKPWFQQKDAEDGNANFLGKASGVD
Excerpt: Hoenicka, E. M. Becker, H. Apeler, T. Sirichoke, H. Schroeder, R. Gerzer and J.-P. Stasch, “Purified soluble guanylyl cyclase expressed in a baculovirus/Sf9 system: Stimulation by YC-1, nitric oxide, and carbon oxide”, J. Mol. Med. 77 (1999), 14-23. The heme-free guanylate cyclase is obtained by adding Tween 20 to the sample buffer (0.5% in the final concentration).
The activation of sGC by a test substance is reported as n-fold stimulation of the basal activity.

[2] = system: saphenous artery rings; assay: Vasorelaxant effect in vitro (phenylephrine-contracted artery rings); format: cell-based, Rabbits; conditions: rabbit saphenous artery rings, contraction induced by phenylephrine
Experimental: Rabbits are anesthetized and sacrificed by intravenous injection of thiopental sodium (about 50 mg/kg) and exsanguinated. The saphenous artery is removed and divided into rings 3 mm wide. The rings are mounted singly on in each case a pair of triangular hooks open at the end and made of 0.3 mm-thick special wire (Remanium®). Each ring is placed under an initial tension in 5 ml organ baths with Krebs-Henseleit solution which is at 37° C., is gassed with 95% O2/5% CO2 and has the following composition: NaCl 119 mM; KCl 4.8 mM; CaCl2×2H2O 1 mM; MgSO4×7H2O 1.4 mM; KH2PO4 1.2 mM; NaHCO3 25 mM; glucose 10 mM; bovine serum albumin 0.001%. The force of contraction is detected with Statham UC2 cells, amplified and digitized via A/D converters (DAS-1802 HC, Keithley Instruments, Munich) and recorded in parallel on chart recorders. Contractions are induced by addition of phenylephrine.
After several (generally 4) control cycles, the substance to be investigated is added in each further run in increasing dosage, and the height of the contraction achieved under the influence of the test substance is compared with the height of the contraction reached in the last preceding run. The concentration necessary to reduce the contraction reached in the preceding control by 50% is calculated from this (IC50). The standard application volume is 5 μl. The proportion of DMSO in the bath solution corresponds to 0.1%.

- Stimulation (n-fold) Heme-containing sGC Basal ([1]; 0.001 μM Example 6): 1.9 n-fold
- Stimulation (n-fold) Heme-containing sGC +0.1 μM DEA/NO ([1]; 0.001 μM Example 6 + 0.1 μM DEA/NO): 62.0 n-fold
- Stimulation (n-fold) Heme-containing sGC +10 μM ODQ ([1]; 0.001 μM Example 6 + 10 μM ODQ): 4.8 n-fold
- Stimulation (n-fold) Heme-containing sGC Basal ([1]; 0.01 μM Example 6): 5.1 n-fold
- Stimulation (n-fold) Heme-containing sGC +0.1 μM DEA/NO ([1]; 0.01 μM Example 6 + 0.1 μM DEA/NO): 66.0 n-fold
- Stimulation (n-fold) Heme-containing sGC +10 μM ODQ ([1]; 0.01 μM Example 6 + 10 μM ODQ): 25.7 n-fold
- Stimulation (n-fold) Heme-containing sGC Basal ([1]; 0.1 μM Example 6): 20.2 n-fold
- Stimulation (n-fold) Heme-containing sGC +0.1 μM DEA/NO ([1]; 0.1 μM Example 6 + 0.1 μM DEA/NO): 80.0 n-fold
- Stimulation (n-fold) Heme-containing sGC +10 μM ODQ ([1]; 0.1 μM Example 6 + 10 μM ODQ): 102.7 n-fold
- Stimulation (n-fold) Heme-containing sGC Basal ([1]; 1 μM Example 6): 29.5 n-fold
- Stimulation (n-fold) Heme-containing sGC +0.1 μM DEA/NO ([1]; 1 μM Example 6 + 0.1 μM DEA/NO): 96.2 n-fold
- Stimulation (n-fold) Heme-containing sGC +10 μM ODQ ([1]; 1 μM Example 6 + 10 μM ODQ): 125.8 n-fold
- Stimulation (n-fold) Heme-containing sGC Basal ([1]; 10 μM Example 6): 42.1 n-fold
- Stimulation (n-fold) Heme-containing sGC +0.1 μM DEA/NO ([1]; 10 μM Example 6 + 0.1 μM DEA/NO): 99.9 n-fold
- Stimulation (n-fold) Heme-containing sGC +10 μM ODQ ([1]; 10 μM Example 6 + 10 μM ODQ): 135.0 n-fold
- Effect of combination with the NO donor DEA/NO on sGC stimulation ([1]; combination of Example 6 and DEA/NO): no synergistic effect
- Effect of the heme-dependent sGC inhibitor ODQ on sGC activation ([1]; with ODQ, effect in fact increased): not blocked
- IC50 [2]: 119 nM
Compound: CC(C)(C)c1ccc(COc2ccccc2/C=C/C(CCc2ccc(-c3nnn[nH]3)cc2)Cc2ccc(C(=O)O)cc2)cc1 (single isomer, unassigned) [Example 6, 4-((3E)-4-{2-[(4-tert-Butylbenzyl)oxy]phenyl}-2-{2-[4-(1H-tetrazol-5-yl)phenyl]ethyl}but-3-en-1-yl)benzoic acid]
